Where two headings read alike, the source gives them in different places. Numbered stars: 1 amine (or outer) side, 2 acyl side, 3 side chain; on linkers, the order of the positions; unused ones are H or OH. Bridge positions count the residues as written; N and C are the ends. Square brackets hold non-standard residues; d marks the D form. Peptide text beside a SMILES is read from it. * marks the point of attachment. X1 = COc1cc2cc(c1Cl)N(C)C(=O)C[C@H](OC(=O)[C@H](C)N(C)C(=O)CCS*)[C@]1(C)O[C@H]1[C@H](C)[C@@H]1C[C@@](O)(NC(=O)O1)[C@H](OC)/C=C/C=C(\C)C2; N(3-sulfanylpropyl)dPhe = O=C([C@@H](Cc1ccccc1)N(CCCS[*:3])[*:1])[*:2]
Key:
[1] = tested on: NCI-H524 (ATCC) human lung cancer cells; type: cell-based
Outline: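 NCI-H524 cells at 5,000/well were exposed to conjugate for 2 h from 20 μM top dose (ten-point, three-fold dilutions), washed, then grown a further 70 h. For competition, cells were pretreated 30 min with 100 μM octreotide. CellTiter Glo readout; % inhibition vs vehicle; four-parameter IC50.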

[2] = Solubility in aqueous media containing surfactants such as Tween 80; type: physicochemical; conditions: aqueous Tween 80
[3] = molecular target: T1, SSTR2 (Homo sapiens, UniProt P30874); assay: Radioligand-receptor binding assay, [125I] labeled somatostatin, membranes from SSTR2 expressing CHO-K1 cells; parameters: host or cells: CHO-K1
T1 sequence (P30874 whole entry): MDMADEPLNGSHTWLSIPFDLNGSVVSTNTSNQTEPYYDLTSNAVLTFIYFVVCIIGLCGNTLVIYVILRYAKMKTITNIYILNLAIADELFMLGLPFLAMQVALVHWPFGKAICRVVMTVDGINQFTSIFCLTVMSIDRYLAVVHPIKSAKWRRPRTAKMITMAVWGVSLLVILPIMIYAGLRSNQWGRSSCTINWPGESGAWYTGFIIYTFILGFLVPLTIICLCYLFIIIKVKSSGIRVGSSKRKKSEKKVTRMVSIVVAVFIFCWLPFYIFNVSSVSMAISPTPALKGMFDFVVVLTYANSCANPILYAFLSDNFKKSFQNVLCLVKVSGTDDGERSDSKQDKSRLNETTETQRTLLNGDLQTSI
Description: Two conjugates were assessed in an in vitro assay evaluating binding to the somatostatin receptor 2 (SSTR2). A radioligand-receptor binding assay was conducted at Eurofins Panlabs (Taiwan) to determine the affinity of conjugates described herein to the SSTR2. The assay measures binding of radiolabeled ligand, [^125I] labeled somatostatin, to human SSTR2 using membrane preparations from SSTR2 expressing CHO-K1 cells. Membranes were incubated with radiolabeled somatostatin (0.03 nM) in the presence of conjugate/compound starting at a dose of 10 uM using 6× serial dilutions to obtain a 10-pt curve. After a four-hour incubation, membranes were filtered and washed 3× and counted to determine the remaining [^125I] somatostatin bound to the receptor. IC50 values were determined by a non-linear, least squares regression analysis using MathIQ™ (ID Business Solutions Ltd., UK). The Ki values were calculated using the equation of Cheng and Prusoff (Cheng and Prusoff, Biochem. Pharmacol. 22: 3099-3108, 1973) using the observed IC50 of the tested conjugate/compound, the concentration of radioligand employed in the assay, and the historical values for the KD of the ligand obtained at Eurofins.

[4] = molecular target: T1, SSTR2; assay: PathHunter eXpress Activated GPCR Internalization agonist assay; type: cell-based; parameters: expressed in transfected cells; conditions: receptor internalization, agonist dose response
Description: Two conjugates were assessed in an in vitro assay evaluating SSTR2. The steps outlined below provide the assay volumes and procedure for performing agonist assays using the PathHunter eXpress Activated GPCR Internalization cells and PathHunter Detection Reagents generally according to the manufacturer's recommendations. GraphPad Prism® was used to plot the agonist dose response.

[5] = tested on: NCI-H69 SCLC (small cell lung cancer) tumors; assay: H69 tumor DM-1 levels by LC/MS-MS; type: in vivo, mice; conditions: 24 hour time point; dosed at 1 mg/kg (conjugates, nanoparticles) or 0.4 mg/kg for DM-1
Description: To examine the ability of conjugates of the present invention to accumulate in tumors, a murine cancer model was used. All mice were treated in accordance with the OLAW Public Health Service Policy on Human Care and Use of Laboratory Animals and the ILAR Guide for the Care and Use of Laboratory Animals. All in vivo studies were conducted following the protocols approved by the Blend Therapeutics Institutional Animal Care and Use Committee. Animals were inoculated with 2.5×10{circumflex over (0)}6 NCI-H69 SCLC (small cell lung cancer) cells in 1:1 RPMI 1640 (Invitrogen, Carlsbad, Calif.)/Matrigel® (BD Biosciences, San Jose, Calif.) via subcutaneous injection to the right flank. Tumors were allowed to reach an approximate volume of ˜500 mm3. Animals were then randomized into treatment groups of 3 animals per time point and were dosed at 1 mg/kg (10% propylene glycol in water for injection for free conjugates, or 10% sucrose for nanoparticles), or 0.4 mg/kg for DM-1 (10% propylene glycol in water for injection). The 24 hour time point was used as a benchmark across conjugates.
Tumor DM-1 levels were determined by liquid chromatography mass spectrometry (LC/MS-MS). Four volumes of 5 mM 6-maleimidohexanoic acid to 1 part tumor v/w was added and homogenized for about 10-15 seconds with a handheld homogenizer. 10 μL of 500 mM Tris(2-carboxyethyl)phosphine was added to 100 uL of tumor homogenate, mixed well and incubated at room temperature for about 5-15 min. 200-300 uL of acetonitrile was used to precipitate proteins in tumor homogenate, samples were centrifuged for 5 min, and supernatant was injected onto LC/MS-MS system for DM-1 analysis.

[6] = tested on: human NCI-H69 SCLC; assay: Tumor growth of human NCI-H69 SCLC in mice; type: in vivo, NCR nude mice; conditions: for tumor volume: Conjugate 10 and Conjugate 10 NP6 2 mg/kg, DM1 0.8 mg/kg, once weekly for two doses, up to 100 days, FIG. 4
Description: Applicants assessed the activity of a conjugate and a nanoparticle formulation of the conjugate in vivo. In these experiments, the ability of compounds to affect the growth of human NCI-H69 SCLC was tested. For the in vivo study, 8 week old female NCR nude mice were inoculated subcutaneously into the right flank with 2 million cells in 1:1 RPMI 1640 (Invitrogen, Carlsbad, Calif.)/Matrigel® (BD Biosciences, San Jose, Calif.). Tumor measurements were taken twice weekly, using vernier calipers. Tumor volume was calculated using the formula: V=0.5×width×width×length.
When tumors approached a volume of 200 mm^3, mice were randomized into four groups of ten animals. Mice were treated with vehicle control (10% propylene glycol in water for injection), Conjugate 10 at 2 mg/kg (10% propylene glycol in water for injection), Conjugate 10 NP6 nanoparticle at 2 mg/kg (10% Sucrose), or DM1 at 0.8 mg/kg (10% propylene glycol in water for injection). Mice were dosed once weekly for two doses. Final tumor volumes were analyzed using with a one-way analysis of variance and Tukey multiple comparison test.
Tumor volume study was repeated with three doses for vehicle, Conjugate 10 (0.7 mg/kg each), and Conjugate 10 NP6 (0.7 mg/kg each). Tumor volumes were tracked for 30 days.

[7] = Pharmacokinetics in rat plasma of Conjugate 10 and Conjugate 10 NP6; conditions: in vivo
Description: Pharmacokinetics studies in rat plasma were also carried out. AUC values were show in Table 16.

[8] = tested on: phospho-histone H3; assay: Phospho-histone H3 response in NCI-H69 tumors; type: in vivo; conditions: FIG. 8
[9] = Table 6, treated 2 hours, further incubated 70 hours, read-out: H524 IC50
[10] = read-out: H524 IC50 + 100 μM octreotide, Table 6, with octreotide competition
[11] = Table 15, treated 2 hours, further incubated 70 hours, read-out: H524 IC50
[12] = read-out: H524 IC50+ 100 uM octreotide, Table 15, 100 μM octreotide for 30 min, then conjugate 2 hours, 70 hours incubation

Structure (SMILES)	EC50 [4]	IC50 [1, 11]	IC50 [1, 12]	H69 tumor DM-1 levels [5]	Ki [3]	other results
CO[C@H]1C(=O)[C@]2(C)[C@@H](OC)C[C@H]3OC[C@@]3(OC(C)=O)[C@H]2[C@H](OC(=O)c2ccccc2)[C@]2(O)C[C@H](OC(=O)[C@H](OC(=O)OCCSSCCC(=O)N[C@H](Cc3ccccc3)C(=O)N[C@H]3CSSC[C@@H](C(=O)N[C@H](CO)[C@@H](C)O)NC(=O)[C@H]([C@@H](C)O)NC(=O)[C@H](CCCCN)NC(=O)[C@@H](Cc4c[nH]c5ccccc45)NC(=O)[C@H](Cc4ccccc4)NC3=O)[C@@H](NC(=O)OC(C)(C)C)c3ccccc3)C(C)=C1C2(C)C [Conjugate 1]	4.4 nM					IC50 [1, 9]: 110 nM; IC50 [1, 10]: 146 nM; solubility in aqueous media containing surfactants such as Tween 80 [2]: high solubility; Ki ([3]; read-out: SSTR2 Ki): 0.8 nM
COc1cccc2c1C(=O)c1c(O)c3c(c(O)c1C2=O)C[C@@](O)(C(=O)COC(=O)CCCC(=O)N[C@H](Cc1ccccc1)C(=O)N[C@H]1CSSC[C@@H](C(=O)N[C@H](CO)[C@@H](C)O)NC(=O)[C@H]([C@@H](C)O)NC(=O)[C@H](CCCCN)NC(=O)[C@@H](Cc2c[nH]c4ccccc24)NC(=O)[C@H](Cc2ccccc2)NC1=O)C[C@@H]3O[C@H]1C[C@H](N)[C@H](O)[C@H](C)O1 [Conjugate 2]	35 nM					IC50 [1, 9]: 2850 nM; IC50 [1, 10]: 2940 nM; solubility in aqueous media containing surfactants such as Tween 80 [2]: high solubility; Ki ([3]; read-out: SSTR2 Ki): 0.24 nM
COc1cc2cc(c1Cl)N(C)C(=O)C[C@H](OC(=O)[C@H](C)N(C)C(=O)CCSSCCC(=O)NCCCC[C@H]1C(=O)N[C@@H](Cc3ccc(O)cc3)C(=O)N[C@H](Cc3c[nH]c4ccccc34)C(=O)N[C@@H](CCCCN)C(=O)N[C@@H]([C@@H](C)O)C(=O)N[C@@H](Cc3ccccc3)C(=O)N1C)[C@]1(C)O[C@H]1[C@H](C)[C@@H]1C[C@@](O)(NC(=O)O1)[C@H](OC)/C=C/C=C(\C)C2 [Conjugate 10]		156 nM	625 nM	72.1 nM	0.1 nM	tumor volume [6]: initially provided tumor regression, but tumors regrew; animals removed from the study due to large tumor size (tumor size less than 2000 mm^3 curve) ([6]; out to 100 days, 2 mg/kg, two doses, FIG. 5): three; AUC(0-inf) [7]: 0.377 µM·h; clearance [7]: 13 mL/min/kg; phospho-histone H3 response in NCI-H69 tumors after treatment [8]: Increase; phospho-histone H3 response at around 50 hour ([8]; around 50 hour): started to decrease
COc1cc2cc(c1Cl)N(C)C(=O)C[C@H](OC(=O)[C@H](C)N(C)C(=O)CCSSCCCN[C@H](Cc1ccccc1)C(=O)N[C@H]1CSSC[C@@H](C(=O)N[C@H](CO)[C@@H](C)O)NC(=O)[C@H]([C@@H](C)O)NC(=O)[C@H](CCCCN)NC(=O)[C@@H](Cc3c[nH]c4ccccc34)NC(=O)[C@H](Cc3ccccc3)NC1=O)[C@]1(C)O[C@H]1[C@H](C)[C@@H]1C[C@@](O)(NC(=O)O1)[C@H](OC)/C=C/C=C(\C)C2 [Conjugate 76]	3 nM	120 nM	768 nM	62.2 nM	0.12 nM	
COc1cc2cc(c1Cl)N(C)C(=O)C[C@H](OC(=O)[C@H](C)N(C)C(=O)CCSSCCCN[C@H](Cc1ccccc1)C(=O)N[C@H]1CSSC[C@@H](C(=O)N[C@@H](Cc3c[nH]c4ccccc34)C(N)=O)NC(=O)[C@H](C(C)C)NC(=O)[C@H](CCCCN)NC(=O)[C@@H](Cc3c[nH]c4ccccc34)NC(=O)[C@H](Cc3ccc(O)cc3)NC1=O)[C@]1(C)O[C@H]1[C@H](C)[C@@H]1C[C@@](O)(NC(=O)O1)[C@H](OC)/C=C/C=C(\C)C2 [Conjugate 78] (H-[N(3-sulfanylpropyl)dPhe](X1)CY[dW]KVCW-NH2; disulfide 2-7)		124 nM	365 nM	36.2 nM	0.19 nM	
COc1cc2cc(c1Cl)N(C)C(=O)C[C@H](OC(=O)[C@H](C)N(C)C(=O)CCSSCCOc1ccc(C[C@@H](N)C(=O)N[C@H]3CSSC[C@@H](C(=O)N[C@H](C(=O)O)[C@@H](C)O)NC(=O)[C@H]([C@@H](C)O)NC(=O)[C@H](CCCCN)NC(=O)[C@@H](Cc4c[nH]c5ccccc45)NC(=O)[C@H](Cc4ccc(O)cc4)NC3=O)cc1)[C@]1(C)O[C@H]1[C@H](C)[C@@H]1C[C@@](O)(NC(=O)O1)[C@H](OC)/C=C/C=C(\C)C2 [Conjugate 111]		123 nM	742 nM	82.6 nM		
COc1cc2cc(c1Cl)N(C)C(=O)C[C@H](OC(=O)[C@H](C)N(C)C(=O)CCSSCCC(=O)NCc1ccc(C[C@@H](N)C(=O)N[C@H]3CSSC[C@@H](C(=O)N[C@H](C(=O)O)[C@@H](C)O)NC(=O)[C@H]([C@@H](C)O)NC(=O)[C@H](CCCCN)NC(=O)[C@@H](Cc4c[nH]c5ccccc45)NC(=O)[C@H](Cc4ccc(O)cc4)NC3=O)cc1)[C@]1(C)O[C@H]1[C@H](C)[C@@H]1C[C@@](O)(NC(=O)O1)[C@H](OC)/C=C/C=C(\C)C2 [Conjugate 115]		327 nM	1500 nM	37.1 nM		
COc1cc2cc(c1Cl)N(C)C(=O)C[C@H](OC(=O)[C@H](C)N(C)C(=O)CCS)[C@]1(C)O[C@H]1[C@H](C)[C@@H]1C[C@@](O)(NC(=O)O1)[C@H](OC)/C=C/C=C(\C)C2 [DM1, reference compound]						tumor volume [6]: tumor volume increased rapidly
COc1cc2cc(c1Cl)N(C)C(=O)C[C@H](OC(=O)[C@H](C)N(C)C(=O)CCS)[C@]1(C)O[C@H]1[C@H](C)[C@@H]1C[C@@](O)(NC(=O)O1)[C@H](OC)/C=C/C=C(\C)C2 [DM-1, reference compound]		90 nM	90 nM	31.6 nM		

Source: patent US10322191B2, “Targeted conjugates and particles and formulations thereof” (TARVEDA THERAPEUTICS, INC., priority 2014, dated 2019)
